Experimental data reported in patent US10889553B2, “Asymmetric triazole benzamide derivatives and the compositions and methods of treatment regarding the same” (NysnoBio Ireland DAC, priority 2017, dated 2021).
Where two headings read alike, the source gives them in different places.

Legend:
[1] = test system: subcutaneous HCT-116 (colon cancer) xenograft; experiment: In vivo cancer xenograft assay; details: 5 mg/kg daily IP, up to 26 days, HCT-116 xenograft in nude mice (FIG. 1)
Protocol: Each mouse was inoculated subcutaneously at the flank region with either HCT-116 cells (1.0×106) in 0.1 ml of 1×PBS mixed with Matrigel (1:1) for tumor development and xenotransplantation.
The vehicle with or without drug is administered to the mouse by intraperitoneal injection. The formulation with respective drug is as follows: • 10% —DMA: N,N-Dimethyl acetamide • 15% —Solutol HS 15: Macrogol 15 Hydroxy Stearate, Polyethylene glycol-15-hydroxystrerate; and 75%-20% aqueous HP-β-CD: Hydroxypropyl-beta-cyclodextrin
Before grouping and treatment, all animals were weighed and the tumor volumes were confirmed (approx. 120-150 mm^3) using electronic caliper. Since the tumor volume can affect the effectiveness of any given treatment, mice were assigned into groups using randomized block design as following: First, the experimental animals were divided into homogeneous blocks based on their tumor volume. […]
After tumor cells were inoculated, the animals were checked daily for morbidity and mortality. […] Death and observed clinical signs were recorded. Tumor volumes were measured every three days in two dimensions using an electronic caliper, and the volume data were expressed in mm^3 using the formula: V=0.5 a×b2 where a and b are the long and short diameters of the tumor, respectively. Tumor volume average is then recorded for each day for groups 1-4 until day 26.

[2] = test system: SKOV3 (ovarian); experiment: Cancer cell proliferation assay (acid phosphatase); format: cell-based; details: Homo sapiens, SK-OV-3; Table 6D, another set of cell proliferation assay
Procedure, shortened: (§1)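 Cells seeded at 4×10^4 cells/ml were incubated overnight at 37° C., 5% CO2, then exposed to compound at varying concentrations in triplicate for 72 hrs. Proliferation was read by acid phosphatase assay (p-nitrophenol phosphate, pH 5.5, 2 hours, 405 nm minus 620 nm) as percent inhibition versus DMSO controls.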

[3] = test system: HT-29 (colon); experiment: Cancer cell proliferation assay (acid phosphatase); format: cell-based; details: Homo sapiens, Table 6C, data of FIG. 2
Procedure, shortened: as §1

[4] = test system: Colo205 (colon); experiment: Cancer cell proliferation assay (acid phosphatase); format: cell-based; details: Homo sapiens, COLO 205; Table 6C, data of FIG. 2
Procedure, shortened: as §1

[5] = test system: Ovarian (A2780); experiment: Cancer cell proliferation assay (acid phosphatase); format: cell-based; details: Homo sapiens
Procedure, shortened: as §1

[6] = test system: A427 (lung); experiment: Cancer cell proliferation assay (acid phosphatase); format: cell-based; details: Homo sapiens, A-427; Table 6C, data of FIG. 2
Procedure, shortened: as §1

[7] = test system: H292 (lung); experiment: Cancer cell proliferation assay (acid phosphatase); format: cell-based; details: Homo sapiens, NCI-H292; Table 6C, data of FIG. 2
Procedure, shortened: as §1

[8] = test system: Mantle Cell Mino; experiment: Cancer cell proliferation assay (acid phosphatase); format: cell-based; details: Homo sapiens, Table 6E
Procedure, shortened: as §1

[9] = test system: Ovarian (OAW42); experiment: Cancer cell proliferation assay (acid phosphatase); format: cell-based; details: Homo sapiens, OAW-42
Procedure, shortened: as §1

[10] = test system: TOV-112D (ovarian); experiment: Cancer cell proliferation assay (acid phosphatase); format: cell-based; details: Homo sapiens, TOV112D
Procedure, shortened: as §1

[11] = test system: Ovarian OAW28 (OAW2B); experiment: Cancer cell proliferation assay (acid phosphatase); format: cell-based; details: Homo sapiens, OAW-28
Procedure, shortened: as §1

[12] = test system: Ovarian OVCAR-3; experiment: Cancer cell proliferation assay (acid phosphatase); format: cell-based; details: Homo sapiens, Table 6E
Procedure, shortened: as §1

[13] = test system: Ovarian (ES-2); experiment: Cancer cell proliferation assay (acid phosphatase); format: cell-based
Procedure, shortened: as §1

[14] = test system: SW626 (ovarian); experiment: Cancer cell proliferation assay (acid phosphatase); format: cell-based; details: Homo sapiens
Procedure, shortened: as §1

[15] = test system: JEKO-1 (lymophoma); experiment: Cancer cell proliferation assay (acid phosphatase); format: cell-based; details: Homo sapiens
Procedure, shortened: as §1

[16] = target: CYP2C19 (Homo sapiens, UniProt P33261); experiment: CYP inhibition assay; format: in vitro ADME; details: read-out: % Inhibition at 30 μM CYP 2C19
Sequence of CYP2C19 (P33261 whole entry): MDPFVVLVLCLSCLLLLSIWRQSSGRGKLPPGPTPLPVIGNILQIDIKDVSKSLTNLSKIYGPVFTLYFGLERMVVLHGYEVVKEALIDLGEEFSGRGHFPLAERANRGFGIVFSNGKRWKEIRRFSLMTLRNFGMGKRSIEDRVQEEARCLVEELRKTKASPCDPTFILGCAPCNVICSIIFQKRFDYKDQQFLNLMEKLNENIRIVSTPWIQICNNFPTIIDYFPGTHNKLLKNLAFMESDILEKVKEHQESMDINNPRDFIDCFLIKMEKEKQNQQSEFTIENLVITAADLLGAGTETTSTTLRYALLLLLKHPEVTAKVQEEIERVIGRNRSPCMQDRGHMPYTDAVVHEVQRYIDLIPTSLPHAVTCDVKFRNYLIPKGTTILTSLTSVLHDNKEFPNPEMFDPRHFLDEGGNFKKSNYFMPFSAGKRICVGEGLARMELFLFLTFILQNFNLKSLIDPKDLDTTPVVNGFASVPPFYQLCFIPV

[17] = Table 6D, another set of cell proliferation assay

## Cc1ccccc1C(=O)Nc1nc(NC(=O)c2ccccc2C)n(-c2ccc(OC(F)(F)F)cc2)n1 [Compound 42, N,N′-(1-(4-(trifluoromethoxy)phenyl)-1H-1,2,4-triazole-3,5-diyl)bis(2-methylbenzamide)]
[1]
  reduced tumor size: greater than 50%
[2]
  EC50: 376 nM
[3]
  IC50: 0.2 µM
[4]
  IC50: 0.2 µM
[5]; [17]
  EC50: 58 nM
[5]; Table 6E
  IC50: 84 nM
[6]
  IC50: 0.15 µM
[7]
  IC50: 0.16 µM
[8]
  IC50: 345 nM
[9]; [17]
  EC50: 166 nM
[9]; Table 6E
  IC50: 166 nM
[10]; Table 6C, data of FIG. 2, read-out: IC50 (μM) TOV-112D (ovarian)
  IC50: 0.13 µM
[10]; Table 6D, another set of cell proliferation assay, read-out: EC50 (nM) Ovarian (TOV0112D)
  EC50: 98 nM
[10]; Table 6E, read-out: Proliferation IC50 (nM) Ovarian TOV112D
  IC50: 0.103 µM
[11]; [17]
  EC50: 114 nM
[11]; Table 6E
  IC50: 140 nM
[12]
  IC50: 140 nM
[13]; [17]
  EC50: 42 nM
[13]; Table 6E
  IC50: 57 nM
[14]; Table 6C, data of FIG. 2
  IC50: 0.3 µM
[14]; [17]
  EC50: 334 nM
[15]; Table 6D, another set of cell proliferation assay, read-out: EC50 (nM) Mantle cell (Jeko-1)
  EC50: 154 nM
[15]; Table 6E, read-out: Proliferation IC50 (nM) Mantle Cell Jeko-1
  IC50: 154 nM
[16]
  inhibition at 30 μM: 60.5%
